From US6323014A, “Method and composition for enhancing the activity of an enzyme” (Unilever Home & Personal Care division of Conopco, Inc., priority 1999, dated 2001)

Columns and labels:
[1] = tested on: phenol oxidizing enzyme from Acremonium murorum; test: Bleaching of tomato stains on cotton swatches, phenol oxidizing enzyme/enhancer system, 50 mM Tris buffer wash solution; format: biochemical; details: enhancer 250 μM, 50 mM Tris buffer pH 9, 30 minutes, 30° C.; for ΔE, stain bleach performance, Oily Tomato Stain, With enzyme / ΔE, stain bleach performance, Tomato Extract, With enzyme: enzyme 20 mg/l
Method: (§1) The potential of the various enhancer to boost the bleach performance of phenol oxidizing enzyme was assessed by washing cotton swatches soiled with tomato stains. Two different bleach monitors were used:
(§2) Tomato extract material was prepared by acetone extraction of the chromophores from concentrated tomato paste. For the preparation of the stains, the colored acetone solution was applied to cotton swatches.
(§3) Oily tomato stains were prepared by applying heated concentrated tomato paste, to which 5 wt % Soya oil was added, to cotton swatches.
(§4) The pH of the wash solution was set to pH 9. Purified phenol oxidizing enzyme from Acremonium murorum was added to the wash solution at 20 mg/l. The enzyme from Acremonium murorum is decribed in WO-A-00/05349 (Unilever). The enhancers were all dosed at 250 μM. The wash solution was 50 mM Tris buffer.
(§5) The swatches were washed during 30 minutes, at 30° C. After the wash, the swatches were tumble-dried and the reflectance spectra were measured using a Minolta spectrometer. The color differences between the swatch before and after the wash data were expressed in the CIELAB L*a*b* color space. In this color space, L* indicates lightness and a* and b* are the chromaticity coordinates. Color differences between two swatches are expressed as ΔE, which is calculated from the following equation: […]

[2] = tested on: phenol oxidizing enzyme from Acremonium murorum; test: Bleaching of tomato stains on cotton swatches, phenol oxidizing enzyme/enhancer system, detergent formulation wash solution; format: biochemical; details: enhancer 250 μM, detergent formulation 2 g/l, 30 minutes, 30° C.; for ΔE, stain bleach performance, Oily Tomato Stain, With enzyme / ΔE, stain bleach performance, Tomato Extract, With enzyme: enzyme 20 mg/l
Method: as §1, §2, §3, §4, §5
Example 1 was repeated, using this time as wash solution a detergent formulation having the composition shown below, at a concentration of 2 g/l. The amounts are given in weight %.

| SMILES | ΔE, stain bleach performance, Oily Tomato Stain, With enzyme [1] | ΔE, stain bleach performance, Oily Tomato Stain, Without enzyme [1] | ΔE, stain bleach performance, Tomato Extract, With enzyme [1] | ΔE, stain bleach performance, Tomato Extract, Without enzyme [1] | ΔE, stain bleach performance, Oily Tomato Stain, With enzyme [2] | ΔE, stain bleach performance, Oily Tomato Stain, Without enzyme [2] | ΔE, stain bleach performance, Tomato Extract, With enzyme [2] | ΔE, stain bleach performance, Tomato Extract, Without enzyme [2] |
| --- | --- | --- | --- | --- | --- | --- | --- | --- |
| O=S(=O)(Nc1cc(Br)c(O)c(Br)c1Br)c1ccccc1 [3BrphenolBSA, N-(2,3,5-tribromo-4-hydroxyphenyl)-benzenesulfonamide] | 5.62 | 4.18 | 19.97 | 10.33 | 10.95 | 6.89 | 26.87 | 12.99 |
| Cc1ccc(S(=O)(=O)Nc2cc(Br)c(O)c(Br)c2Br)cc1 [3Brphenol3MeBSA, N-(2,3,5-tribromo-4-hydroxyphenyl) -4-Methyl benzenesulfonamide] | 6.21 | 1.56 | 19.59 | 10.86 | 11.71 | 6.87 | 27.57 | 12.86 |
